Measurements taken from a melting point compilation (Tetko et al.).

Conditions: a range is the spread between reports

SMILES | melting point [°C]
C(=Nc1ccccc1)Nc1ccccc1 | 138 to 142
Oc1cc(Cl)ccc1Cl | 57 to 59
c1cc2c3c(c1)ccc1cccc(c13)C2 | 114 to 116
Oc1ccccc1Br | 5 to 5.6
C=CC(=O)NC(C)(C)CC(C)=O | 55 to 57.5
O=C(c1ccccc1)C(Cl)Cl | 20.5 to 21
O=[N+]([O-])c1cc(Br)ccc1Br | 82 to 85.5
c1ccc2nc(-c3ccc4ccccc4n3)ccc2c1 | 194 to 195
c1ccc(Cc2ccc(-c3ccccc3)cc2)cc1 | 85 to 86
Oc1ccc2c(c1)[nH]c1ccccc12 | 272
O=[N+]([O-])c1cccc(CCl)c1 | 45 to 47
COc1ccc(C(=O)c2ccccc2)cc1 | 61.5 to 62
O=C(O)C(F)(F)Cl | 22 to 25
CC12CCC3C(CCC4CC(OCc5ccccc5)CCC43C)C1CCC2=O (stereo not given) | 216 to 220
CNC(=O)Oc1cccc2c1OC(C)(C)C2 | 151 to 152
C1CCc2nnnn2CC1 | 57.5 to 60
O=c1cc(-c2ccccc2)oc2ccccc12 | 97 to 100
Cc1ccccc1 | -95 to -93
O=C1C(F)=C(F)C(=O)C(F)=C1F | 179 to 184
C=Cc1ccc(O)cc1 | 73 to 73.5
Brc1ccc(Oc2ccccc2)cc1 | 18 to 18.7
O=C(O)c1cc([N+](=O)[O-])ccc1Cl | 166 to 167

SMILES | melting point [°C]
O=C(C=Cc1cccc([N+](=O)[O-])c1)c1ccccc1 | 146
O=[N+]([O-])c1ccc(C(F)(F)F)cc1 | 39 to 40
O=C(Oc1ccc([N+](=O)[O-])cc1)c1ccccc1 | 139 to 143
O=C1c2ccccc2C(=O)c2c(Cl)cccc21 | 159 to 163
CCCCCCCCCCCCBr | -10 to -9.5
CCC1(C2=CCCCC2)C(=O)NC(=O)NC1=O | 172 to 173
CCCI | -101
O=C(C=NO)c1ccccc1 | 127 to 129
CCOCC | -116
CCCOC1CCC2(C)C(CC(=O)C3C2CCC2(C)C(OCCC)CCC32)C1 (stereo not given) | 161 to 163
Cc1cccc(N)c1 | -31.3 to -30
COC(=O)c1cc2ccccc2cc1O | 73 to 75.5
CC1CO1 (stereo not given) | -112
O=[N+]([O-])c1c(Cl)cc(Cl)cc1Cl | 71 to 72
O=C1CCCCN1 | 37 to 39.5
c1ccc2cnncc2c1 | 90.5 to 91
NCC(O)c1ccccc1 (stereo not given) | 56.5 to 57
COP(=O)(NC(C)=O)SC (stereo not given) | 88 to 89
Brc1cc(Br)c(Br)cc1Br | 178 to 182
COC(N)=O | 54 to 55
O=C1CCCN1 | 23 to 24
c1ccc(P(CCCP(c2ccccc2)c2ccccc2)c2ccccc2)cc1 | 60 to 61

SMILES | melting point [°C]
c1ccc(Nc2ccc(-c3ccc(Nc4ccccc4)cc3)cc2)cc1 | 247 to 248
O=[N+]([O-])c1cc(Cl)ccc1Cl | 55 to 56
O=C(Oc1cccc(O)c1)c1ccccc1 | 132 to 134
O=C1OC(=O)c2cc(Cl)c(Cl)cc21 | 186 to 188
c1ccc(Oc2ccccc2)cc1 | 26.8 to 28
Clc1ccc(Br)c(Cl)c1 | 26 to 27
Clc1ccc2cc[nH]c2c1 | 89 to 90
O=C1OC(c2ccc(O)cc2)(c2ccc(O)cc2)c2ccccc21 | 260 to 262
Clc1cncc(Cl)c1 | 65 to 66
O=C(O)C(Cl)=C(Cl)Cl | 73 to 76
ClC(Cl)Br | -57 to -55
OC1c2ccccc2Oc2ccccc21 | 123 to 128
c1ccc2c(c1)ccc1cccnc12 | 50 to 52
O=[N+]([O-])c1ccccc1O | 44 to 46
O=c1c(-c2ccc(O)cc2)coc2cc(O)cc(O)c12 | 300 to 302
Clc1cccc(-c2ccccc2)c1 | 16 to 18
O=C1CCCCCCCCCCCCCCO1 | 32 to 35
O=Cc1cccc(Cl)c1 | 17 to 18
NNc1c(F)c(F)c(F)c(F)c1F | 75 to 76
Fc1ccc(Br)cc1 | -17.4 to -16
Brc1cncc2ccccc12 | 41 to 41.5
O=C(c1ccccc1)c1cccc(Cl)c1 | 82 to 83

SMILES | melting point [°C]
COc1ccc(Cc2nccc3cc(OC)c(OC)cc23)cc1OC | 147 to 148
ON=C1CCCCC1 | 89 to 90
Oc1cccc2cccnc12 | 74 to 76
OCC1c2ccccc2-c2ccccc21 | 104 to 106
COc1ccc(N)cc1 | 57 to 59
c1ccc2c(c1)CCC2 | -51.4 to -51
O=Cc1ccc[nH]1 | 43 to 46.5
C=Cc1ccccc1Cl | -63.1 to -63
N#Cc1cc(Cl)cc(Cl)c1 | 64 to 66
S=C=Nc1ccc(N=C=S)cc1 | 131 to 132
O=C(C=CC=Cc1ccc2c(c1)OCO2)N1CCCCC1 | 131 to 132
O=Cc1ccc(O)cc1O | 135 to 136
c1ccc(CNCCNCc2ccccc2)cc1 | 24 to 26
CC(N)=S | 112 to 116
O=S(c1ccccc1)c1ccccc1 | 70 to 71.2
ClC(Br)Br | -22 to -20
O=c1c(O)c(-c2ccccc2)oc2ccccc12 | 170 to 172
O=[N+]([O-])c1ccc2c(c1)Cc1ccccc1-2 | 156 to 157
O=C1C(Br)=CC(=NCl)C=C1Br | 80 to 83
O=C(Cl)c1ccc2ccccc2c1 | 50 to 51
c1ccc(-c2ccc(-c3ccccc3)cc2)cc1 | 210 to 214
c1ccc2c(c1)Cc1cc3ccccc3cc1-2 | 208 to 212

The next lines start with the values.

melting point [°C] | SMILES
-123 to -119 | CC(C)CC(C)C
-93 to -92.9 | CC#CCC(C)C
60 to 65 | C[Si]1(C)O[Si](C)(C)O[Si](C)(C)O1
-94 to -93 | CCCN(CCC)CCC
-8.1 to -8 | CC1=CC(=O)CC(C)(C)C1
47.6 to 49 | CCCCCCCCCCCCCCCCCCCCCCC
144 to 145 | COc1cc(OC)c(C(=O)O)cc1OC
-38 to -37 | COc1c(F)c(F)c(F)c(F)c1F
-14 to -13.5 | CCc1cc(C)c(C)cc1C
56 to 60 | Cc1cc(C)c(C)c(Br)c1C
-109 | COC(C)(C)C
192 to 194 | CC(=O)Oc1ccc(C(=O)O)cc1
77 to 80 | CC(=O)Nc1cccc(Cl)c1
146 to 147 | NC(=O)c1c(F)cccc1F
-90 to -89.6 | CC#CCCC
65 to 68 | CCCCCCc1ccc(O)cc1O
158 | Cc1ccc(-c2cc(C(F)(F)F)nn2-c2ccc(S(N)(=O)=O)cc2)cc1
-34.4 to -34 | CC(Br)CCCBr (stereo not given)
-33 to -29.3 | CC(C)CC(=O)O
181 to 183 | CC(=O)Nc1c(C)cccc1C
69 to 70 | COc1ccc(Cl)c(Cl)c1Cl
-63.6 to -63 | C#CCCO
29 to 31 | Cc1ccc(S)c(S)c1
76 to 81 | CCCCCCCCCCCCCCCCCCCCCC(=O)O
-76 to -75.7 | CCCCCS
-50 to -49 | CCCCN

melting point [°C] | SMILES
-63.6 to -63 | ClC(Cl)Cl
28 to 28.6 | CCCCCCCCCCC(=O)O
59 to 59.5 | CCCCCCCCCCCCCCCCCCCCCCCCCCC
18 to 18.1 | CCCCCCCCCCCCCCCC
-126 | CCCC(C)(C)CC
-111 | C=CCC1CCCC1
61.5 to 62 | CCOc1ccc(C#N)cc1
170 to 171 | Cc1cc(C)cc(C(=O)O)c1
-37.5 to -37 | COc1ccccc1
-115 to -113 | CC/C=C/CC
14.5 to 15 | CCCCCC(=O)CCCCC
56 to 60 | COc1ccc(OC)cc1
-55.5 to -55 | CCCC(=O)CC
-67.1 to -67 | CC(=O)CCC=C(C)C
-140 | C=C(C)C
65.5 to 67 | CCOC(=O)C(=O)Nc1ccccc1
15 to 16 | CC(C)c1ccccc1O
-87 to -85 | CC(C)CN
-42 to -41.2 | CCCC(O)CCC
-23.2 to -23 | C=C(C)c1ccccc1
95 to 96 | Cc1cccc(C(N)=O)c1
-96 to -95.5 | CCc1cccc(C)c1
47 to 50.5 | CCc1nc(C)c[nH]1
-13 to -12.6 | CC(C)(C)CCC(C)(C)C
115 to 116 | CCCC(N)=O
81.5 to 82 | COc1cc(C=O)ccc1O

melting point [°C] | SMILES
80 to 83 | COC(=O)c1ccc(Cl)c([N+](=O)[O-])c1
12 to 12.3 | CCCCCCCCCCCCCC(=O)OCC
175 to 180 | CCNC(=O)C(=O)NCC
-81 to -80 | CCC=O
97.5 to 98 | O=C(O)CCOc1ccccc1
81.5 to 82 | OC(COc1ccccc1)COc1ccccc1
24 to 25 | CCCCCCCCCCc1ccc(N)cc1
172 to 173 | N#Cc1ccccc1C(N)=O
211 to 213 | Cc1n[nH]c(=O)[nH]c1=O
59 to 59.5 | OCc1ccc(Cl)cc1Cl
118 | CC(Oc1ccccc1)C(=O)O (stereo not given)
64 to 66.1 | CCCCCCCCCCCCCCCCCCCCO
158 | CC1(O)CCC(C(C)(C)O)CC1 (stereo not given)
39 to 41 | O=C(O)CCCl
31 to 31.5 | Nc1c(F)c(F)cc(F)c1F
126 to 127 | COc1ccc(NC(=O)N(C)C)cc1Cl
57 to 58 | CCOC(=O)CNc1ccccc1
-24 to -23.7 | Cc1cc(C)c(C)c(C)c1
167 to 172 | Cc1cc(NS(=O)(=O)c2ccc(N)cc2)no1
70 to 72 | COc1cccc(CC(=O)O)c1
200 to 201 | Cc1c(C2(c3cc(C(C)C)c(O)c(Br)c3C)OS(=O)(=O)c3ccccc32)cc(C(C)C)c(O)c1Br
184 to 187 | Cc1nnc(S)s1
188 to 189 | Nc1ncc2ncn(COCCO)c2n1
-1.8 to -1 | Brc1cccc2ccccc12
-62 to -61.9 | COC(=O)CC(=O)OC
